According to the supplement of paper PMC11061612:

What was measured:
Capivasertib = compound: C1CN(CCC1(C(=O)N[C@@H](CCO)C2=CC=C(C=C2)Cl)N)C3=NC=NC4=C3C=CN4 [Capivasertib]; settings: max 10 µM
How it was run: (§1)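 After 24 hours at 37°C and 5% CO2 in 1536-well plates holding 7.5 μl of DMEM/F12 or RPMI with 10% FBS, cancer cell lines were dosed for 72 hours, with final DMSO typically 0.2%. Viability came from CellTiter-Glo 2.0 luminescence, scaled between the means of blank wells and DMSO wells. A non-linear mixed effects model fitted a two-parameter logistic curve to each dose response to give the single-agent IC50.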

AZD1775 = compound: C=CCn1c(=O)c2cnc(Nc3ccc(N4CCN(C)CC4)cc3)nc2n1-c1cccc(C(C)(C)O)n1 [AZD1775]; settings: max 3 µM
How it was run: as §1

Trametinib = compound: CC(=O)Nc1cccc(-n2c(=O)n(C3CC3)c(=O)c3c(Nc4ccc(I)cc4F)n(C)c(=O)c(C)c32)c1 [Trametinib]; settings: max 1 µM
How it was run: as §1

Palbociclib = compound: CC(=O)c1c(C)c2cnc(Nc3ccc(N4CCNCC4)cn3)nc2n(C2CCCC2)c1=O [Palbociclib]; settings: max 10 µM
How it was run: as §1

AZD1390 = compound: CC(C)n1c(=O)n(C)c2cnc3cc(F)c(-c4ccc(OCCCN5CCCCC5)nc4)cc3c21 [AZD1390]; settings: max 0.3 µM
How it was run: as §1

Venetoclax = compound: CC1(C)CCC(CN2CCN(c3ccc(C(=O)NS(=O)(=O)c4ccc(NCC5CCOCC5)c([N+](=O)[O-])c4)c(Oc4cnc5[nH]ccc5c4)c3)CC2)=C(c2ccc(Cl)cc2)C1 [Venetoclax]; settings: max 1 µM
How it was run: as §1

Dasatinib = compound: CC1=C(C(=CC=C1)Cl)NC(=O)C2=CN=C(S2)NC3=CC(=NC(=N3)C)N4CCN(CC4)CCO [Dasatinib]; settings: max 2 µM
How it was run: as §1

SG3199 = compound: CC1=CN2[C@@H](C1)C=NC3=CC(=C(C=C3C2=O)OC)OCCCCCOC4=C(C=C5C(=C4)N=C[C@@H]6CC(=CN6C5=O)C)OC [SG3199]; settings: max 0.001 µM
How it was run: as §1

AZD2811 = compound: CCN(CCO)CCCOc1ccc2c(Nc3cc(CC(=O)Nc4cccc(F)c4)[nH]n3)ncnc2c1 [AZD2811]; settings: max 1 µM
How it was run: as §1

SN-38 = compound: CCc1c2c(nc3ccc(O)cc13)-c1cc3c(c(=O)n1C2)COC(=O)[C@]3(O)CC [SN-38]; settings: max 0.3 µM
How it was run: as §1

AZD0156 = compound: CN(C)CCCOc1ccc(-c2ccc3ncc4c(c3c2)n(C2CCOCC2)c(=O)n4C)cn1 [AZD0156]; settings: max 3 µM
How it was run: as §1

AZD4320 = compound: CN(CC[C@H](CSC1=CC=CC=C1)NC2=C(C=C(C=C2)S(=O)(=O)NC(=O)C3=CC=C(C=C3)N4CCC(CC4)[C@H](C5=CC=CC=C5C6=CC=C(C=C6)Cl)O)S(=O)(=O)C(F)(F)F)CCO [AZD4320]; settings: max 1 µM
How it was run: as §1

Alisertib = compound: COc1cc(Nc2ncc3c(n2)-c2ccc(Cl)cc2C(c2c(F)cccc2OC)=NC3)ccc1C(=O)O [Alisertib]; settings: max 10 µM
How it was run: as §1

Gefitinib = compound: COc1cc2ncnc(Nc3ccc(F)c(Cl)c3)c2cc1OCCCN1CCOCC1 [Gefitinib]; settings: max 10 µM
How it was run: as §1

Prexasertib = compound: COc1cccc(OCCCN)c1-c1cc(Nc2cnc(C#N)cn2)n[nH]1 [Prexasertib]; settings: max 1 µM
How it was run: as §1

Doxorubicin = compound: COc1cccc2c1C(=O)c1c(O)c3c(c(O)c1C2=O)C[C@@](O)(C(=O)CO)C[C@@H]3O[C@H]1C[C@H](N)[C@H](O)[C@H](C)O1 [Doxorubicin]; settings: max 1 µM
How it was run: as §1

AZD5153 = compound: COc1nnc2ccc(N3CCC(c4ccc(OCCN5CCN(C)C(=O)[C@H]5C)cc4)CC3)nn12 [AZD5153]; settings: max 1 µM
How it was run: as §1

Lapatinib = compound: CS(=O)(=O)CCNCc1ccc(-c2ccc3ncnc(Nc4ccc(OCc5cccc(F)c5)c(Cl)c4)c3c2)o1 [Lapatinib]; settings: max 10 µM
How it was run: as §1

AZD8186 = compound: C[C@@H](Nc1cc(F)cc(F)c1)c1cc(C(=O)N(C)C)cc2c(=O)cc(N3CCOCC3)oc12 [AZD8186]; settings: max 3 µM
How it was run: as §1

Crizotinib = compound: C[C@@H](Oc1cc(-c2cnn(C3CCNCC3)c2)cnc1N)c1c(Cl)ccc(F)c1Cl [Crizotinib]; settings: max 10 µM
How it was run: as §1

Savolitinib = compound: C[C@@H](c1ccc2nccn2c1)n1nnc2ncc(-c3cnn(C)c3)nc21 [Savolitinib]; settings: max 1 µM
How it was run: as §1

AZD6738 = compound: C[C@@H]1COCCN1C2=NC(=NC(=C2)C3(CC3)[S@](=N)(=O)C)C4=C5C=CNC5=NC=C4 [AZD6738]; settings: max 10 µM
How it was run: as §1

AZD5991 = compound: Cc1c2c(nn1C)CSCc1cc(n(C)n1)CSc1cc(c3ccccc3c1)OCCCc1c(C(=O)O)n(C)c3c-2c(Cl)ccc13 [AZD5991]; settings: max 1 µM
How it was run: as §1

AZD7648 = compound: Cc1cc2ncnn2cc1Nc1ncc2c(n1)n(C1CCOCC1)c(=O)n2C [AZD7648]; settings: max 10 µM
How it was run: as §1

Taselisib = compound: Cc1nc(-c2cn3c(n2)-c2ccc(-c4cnn(C(C)(C)C(N)=O)c4)cc2OCC3)n(C(C)C)n1 [Taselisib]; settings: max 10 µM
How it was run: as §1

Selumetinib = compound: Cn1cnc2c(F)c(Nc3ccc(Br)cc3Cl)c(C(=O)NOCCO)cc21 [Selumetinib]; settings: max 10 µM
How it was run: as §1

MK-2206 = compound: NC1(c2ccc(-c3nc4ccn5c(=O)[nH]nc5c4cc3-c3ccccc3)cc2)CCC1 [MK-2206]; settings: max 10 µM
How it was run: as §1

Olaparib = compound: O=C(c1cc(Cc2n[nH]c(=O)c3ccccc23)ccc1F)N1CCN(C(=O)C2CC2)CC1 [Olaparib]; settings: max 10 µM
How it was run: as §1

Cell Line | IC50, cell viability 72 h (Capivasertib) [nM] | IC50, cell viability 72 h (AZD1775) [nM] | IC50, cell viability 72 h (Trametinib) [nM] | IC50, cell viability 72 h (Palbociclib) [nM] | IC50, cell viability 72 h (AZD1390) [nM] | IC50, cell viability 72 h (Venetoclax) [nM] | IC50, cell viability 72 h (Dasatinib) [nM] | IC50, cell viability 72 h (SG3199) [nM] | IC50, cell viability 72 h (AZD2811) [nM] | IC50, cell viability 72 h (SN-38) [nM] | IC50, cell viability 72 h (AZD0156) [nM] | IC50, cell viability 72 h (AZD4320) [nM] | IC50, cell viability 72 h (Alisertib) [nM] | IC50, cell viability 72 h (Gefitinib) [nM] | IC50, cell viability 72 h (Prexasertib) [nM] | IC50, cell viability 72 h (Doxorubicin) [nM] | IC50, cell viability 72 h (AZD5153) [nM] | IC50, cell viability 72 h (Lapatinib) [nM] | IC50, cell viability 72 h (AZD8186) [nM] | IC50, cell viability 72 h (Crizotinib) [nM] | IC50, cell viability 72 h (Savolitinib) [nM] | IC50, cell viability 72 h (AZD6738) [nM] | IC50, cell viability 72 h (AZD5991) [nM] | IC50, cell viability 72 h (AZD7648) [nM] | IC50, cell viability 72 h (Taselisib) [nM] | IC50, cell viability 72 h (Selumetinib) [nM] | IC50, cell viability 72 h (MK-2206) [nM] | IC50, cell viability 72 h (Olaparib) [nM]
HSC-4 (Oral Cavity Carcinoma) | > 10000 | > 3000 | > 1000 | > 10000 | > 300 | > 1000 | > 2000 | > 1 | > 1000 | 11.2 | > 3000 | > 1000 | > 10000 | > 10000 | 205 | > 1000 | > 1000 | > 10000 | > 3000 | > 10000 | > 1000 | 7280 | > 1000 | > 10000 | > 10000 | > 10000 | > 10000 | > 10000
NUGC-3 (Gastric Carcinoma) | > 10000 | 729 | 592 | > 10000 | > 300 | > 1000 | > 2000 | > 1 | > 1000 | 5.05 | > 3000 | > 1000 | > 10000 | > 10000 | 193 | 128 | > 1000 | 5310 | > 3000 | > 10000 | > 1000 | 6490 | > 1000 | > 10000 | 3750 | > 10000 | > 10000 | > 10000
HGC-27 (Gastric Carcinoma) | 346 | 2240 | > 1000 | 3210 | > 300 | > 1000 | 349 | > 1 | 94.1 | 14.6 | > 3000 | > 1000 | 164 | > 10000 | 76.8 | 146 | 54.8 | 4940 | 2380 | 3250 | > 1000 | 2840 | > 1000 | > 10000 | 61.1 | > 10000 | 501 | > 10000
PWR-1E (Non-Cancerous) | > 10000 | 525 | > 1000 | > 10000 | > 300 | > 1000 | 371 | > 1 | 827 | 13 | > 3000 | > 1000 | 1510 | > 10000 | 28.1 | > 1000 | 343 | > 10000 | > 3000 | 8500 | > 1000 | 2820 | > 1000 | > 10000 | 7810 | > 10000 | > 10000 | > 10000
OSC-20 (Oral Cavity Carcinoma) | > 10000 | 1220 | > 1000 | > 10000 | > 300 | > 1000 | > 2000 | > 1 | > 1000 | 40.4 | > 3000 | > 1000 | > 10000 | > 10000 | 458 | > 1000 | > 1000 | > 10000 | > 3000 | > 10000 | > 1000 | > 10000 | > 1000 | > 10000 | 9680 | > 10000 | – | > 10000
OVCAR-4 (Ovarian Carcinoma) | > 10000 | > 3000 | > 1000 | > 10000 | > 300 | > 1000 | > 2000 | > 1 | > 1000 | > 300 | > 3000 | > 1000 | > 10000 | > 10000 | 57.4 | > 1000 | > 1000 | > 10000 | > 3000 | > 10000 | > 1000 | 6930 | > 1000 | > 10000 | > 10000 | > 10000 | – | > 10000
SCC-15 (Oral Cavity Carcinoma) | > 10000 | > 3000 | > 1000 | > 10000 | > 300 | > 1000 | 1360 | > 1 | > 1000 | 66.1 | > 3000 | > 1000 | > 10000 | > 10000 | 682 | > 1000 | > 1000 | > 10000 | > 3000 | > 10000 | > 1000 | > 10000 | > 1000 | > 10000 | 2000 | > 10000 | – | > 10000
TE-1 (Esophageal Squamous Cell Carcinoma) | > 10000 | 2220 | > 1000 | > 10000 | > 300 | > 1000 | 393 | > 1 | > 1000 | 157 | > 3000 | > 1000 | 6090 | > 10000 | 131 | > 1000 | > 1000 | > 10000 | > 3000 | > 10000 | > 1000 | > 10000 | > 1000 | > 10000 | 7850 | > 10000 | – | > 10000
NCI-H1915 (Non-Small Cell Lung Carcinoma) | > 10000 | 2870 | 34.7 | > 10000 | > 300 | > 1000 | 567 | > 1 | > 1000 | 61.6 | > 3000 | > 1000 | 5150 | > 10000 | 335 | > 1000 | > 1000 | > 10000 | > 3000 | > 10000 | > 1000 | > 10000 | > 1000 | > 10000 | > 10000 | 3910 | – | > 10000
NEC8 (Other Solid Carcinomas) | > 10000 | 558 | > 1000 | > 10000 | > 300 | > 1000 | > 2000 | > 1 | > 1000 | 21.5 | > 3000 | > 1000 | > 10000 | > 10000 | 35.7 | 595 | 226 | > 10000 | > 3000 | > 10000 | > 1000 | 5760 | > 1000 | > 10000 | > 10000 | > 10000 | – | > 10000
